Ends that are not written are not given here.
Legend:
[1] = target: T1, PKN purified from rat testis (Rattus norvegicus, UniProt Q63433); test: Phosphorylation of α-actinin and actin-cytoskeletal proteins by PKN; assay type: biochemical; conditions: presence of 40 μM arachidonic acid
T1 construct: The purified PKN (1 ng) from rat testis cytosol; from tissue; host or cells: rat testis (cytosol / soluble fraction)
Procedure: α-Actinin used in the experiment was purified from bovine aorta by the method of Feramisco et al. (Feramisco, J. R. & Burridge, K. J. Biol. Chem, 255, 1194-1199 (1980)). The phosphorylation by PKN was carried out at 30° C. in an assay mixture containing 20 mM Tris/HCl at pH 7.5, 4 mM MgCl2, 100 μM ATP, 185 kBq of [γ-^32p] ATP, substrates for phosphorylation (phosphate acceptors), 20 ng/ml of purified PKN from rat testis (Abe, M., et al., J. Biochem. Tokyo 107, 507-509 (1990)) in the presence or absence of 40 μM arachidonic acid as indicated in each experiment. Partial purified protein was boiled for 3 min to destroy endogenous kinase activity before use as the substrate for phosphorylation. After incubation for 5 min, the reaction was terminated by the addition of an equal volume of Laemmli's sample buffer (Laemmli, U. K. Nature […], 680-685 (1970)), and separated on SDS-PAGE. The gels were dried under vacuum and the phosphorylation was visualized and quantitated by an imaging analyzer (FUJI BAS1000). When the δPKC peptide (Mukai, H., et al. Biochem, Biophys. Res. Commun. 204, 348-356 (1994)) was used as the substrate for phosphorylation, reactions were terminated by spotting a mixture onto a Whatman P81 paper and submerging it in 75 mM phosphate, and followed by three times of 10 min washes. Incorporation of ^32p into the peptide was assessed by scintillation counting. […]

[2] = target: T2, purified PKN from rat testis (Rattus norvegicus, UniProt Q63433); test: Phosphorylation of native NF by PKN; assay type: biochemical; conditions: 40 μM arachidonic acid
T2 construct: The purified PKN (1 ng) from rat testis cytosol; from tissue; host or cells: rat testis (cytosol / soluble fraction)
T2 sequence (Q63433 whole entry): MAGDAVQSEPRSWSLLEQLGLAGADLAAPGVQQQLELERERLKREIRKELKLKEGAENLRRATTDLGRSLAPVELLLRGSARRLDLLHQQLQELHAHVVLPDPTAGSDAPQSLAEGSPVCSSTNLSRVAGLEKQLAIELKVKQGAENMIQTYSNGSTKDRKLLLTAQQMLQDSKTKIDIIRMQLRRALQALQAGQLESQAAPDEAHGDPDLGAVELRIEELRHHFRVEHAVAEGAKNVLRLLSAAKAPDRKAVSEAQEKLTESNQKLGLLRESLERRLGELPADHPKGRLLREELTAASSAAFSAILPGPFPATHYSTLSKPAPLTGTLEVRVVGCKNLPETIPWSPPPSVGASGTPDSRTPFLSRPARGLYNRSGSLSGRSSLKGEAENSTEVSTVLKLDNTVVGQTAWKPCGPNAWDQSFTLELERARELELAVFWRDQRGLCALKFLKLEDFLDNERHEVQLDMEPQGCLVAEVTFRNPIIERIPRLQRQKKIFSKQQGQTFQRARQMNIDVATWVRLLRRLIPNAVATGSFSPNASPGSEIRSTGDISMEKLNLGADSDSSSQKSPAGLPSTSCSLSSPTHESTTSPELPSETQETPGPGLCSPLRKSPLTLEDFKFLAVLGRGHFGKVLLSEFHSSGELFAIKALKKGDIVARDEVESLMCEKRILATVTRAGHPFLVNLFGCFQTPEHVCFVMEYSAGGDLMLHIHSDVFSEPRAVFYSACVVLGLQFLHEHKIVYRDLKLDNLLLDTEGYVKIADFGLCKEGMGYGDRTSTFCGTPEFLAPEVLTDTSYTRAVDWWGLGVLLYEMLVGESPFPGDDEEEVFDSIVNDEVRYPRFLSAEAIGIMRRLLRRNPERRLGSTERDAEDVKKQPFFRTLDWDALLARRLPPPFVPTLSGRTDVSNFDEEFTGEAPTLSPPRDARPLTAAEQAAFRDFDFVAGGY
Procedure: Native NFs were prepared from bovine spinal cords according to a method described in Hisanaga, S. & Hirokawa, N., J. Mol. Biol. 202, 297-305 (1988). Kinase assay was carried out according to the following method.
Soluble cytosolic extract of spinal cord or purified NF proteins were boiled for 5 min to destroy endogenous protein kinase activity prior to their use as phosphate acceptors. The phosphorylation of NF preparations was carried out at 30° C. in an assay mixture containing 20 mM Tris/HCl at pH 7.5, 8 mM MgCl2, 100 μM ATP, 185 kBq of [γ-^32P]ATP, each subunit of NF, 20 ng/ml of purified PKN from rat testis, and with/without 40 μM arachidonic acid as indicated in each experiment. Reactions were terminated after various times by the addition of an equal volume of Laemli's sample buffer, and separation was performed on 7% SDS-PAGE. The gels were dried under vacuum and exposure to BAS1000 bio-imaging analyzer. Dephosphorylation of NF proteins was conducted with calf intestine alkaline phosphatase according to a method described in Carden, M. J. et al., J. Biol. Chem. 260, 9805-9817 (1985) and terminated after boiling for 5 min.

Rat-1 cells = test: Subcellular distribution of PKN after sodium arsenite (immunofluorescence); assay type: cell-based; conditions: 50 μM, 37° C. for 2 hr
Procedure: (§1) Cells grown on coverslips were washed twice with phosphate-buffered saline (PBS), fixed for 1 hr at 4° C. in 4% paraformaldehyde, rinsed with PBS, and then blocked for 1 hr in PBS-T (PBS containing 0.05% Triton X-100) containing 5% normal goat serum. After washing with PBS, cells were incubated overnight at 4° C. with each antiserum which has been diluted with PBS to an antiserum concentration of about 10 μg/ml. Coverslips were then rinsed with PBS-T, and incubated with fluorescein isothiocyanate isomer I (FITC)-conjugated goat anti-rabbit IgG (Medical and biological laboratories, Co. Ltd.) for 60 min. Coverslips were rinsed with PBS-T followed by PBS, mounted with glycerol containing 0.1% 1, 4-diazabicyclo (2, 2, 2) octane (DABCO), and viewed on a Zeiss laser scanning microscope.
An experiment was made in order to examine whether the subcellular distribution of PKN is influenced also by chemical shock. It is known that toxic compounds and toxic heavy metals also induce heat shock proteins and the stress responses in experimental systems (Maytin, E. V. & Young, D. A., J. Biol. Chem. 258, 12718-12722 (1983)). It is also known that cellular response similar to the stress induced by the heat shock is created also by treatment with sodium arsenite (Welch, W. J. & Suhan, J. P., J. Cell Biol. 103, 2035-2052 (1986)). […]

PKN = target: T3, PKN (Rattus norvegicus, UniProt Q63433); test: Inhibition of protein kinase activity of PKN with synthetic peptides (δPKC peptide substrate); assay type: biochemical; conditions: δPKC peptide at Km concentration (10 μM)
T3 construct: The purified PKN (1 ng) from rat testis cytosol; from tissue; host or cells: rat testis (cytosol / soluble fraction)
T3 sequence (Q63433 whole entry): as above
Procedure: Kinase assay was carried out by the following method. The purified PKN (1 ng) from rat testis cytosol (Kitagawa, M. et al., Biochem. J. 310, 657-664. (1995)) was incubated for 5 min at 30° C. in a reaction mixture (final volume 25 μl) containing 50 mM Tris/HCl (pH 7.5), 8 mM Mgcl2, 20 μM ATP, 18.5 kBq of [γ-^32p] ATP, 40 μM arachidonic acid, phosphate acceptors and inhibitors as indicated in each experiment. Reactions were started by the addition of the enzyme source and terminated by spotting them onto Whatman P81 papers immersed in 75 mM phosphate. Incorporation of ^32P into phosphate acceptors was assessed by liquid scintillation counting. The protein kinase assay was carried out in the same manner as in Example 13, except that PKN was measured by using 6PKC peptide as a substrate and PKN (39-53) peptide (FIG. 22; black circle) or PKN (54-73) (FIG. 22: white circle) as an inhibitor. The concentration of δPKC peptide was Km concentration (10 μM). The protein kinase reaction was carried out in the presence of PKN (39-53) peptide or PKN (54-73) peptide with various concentrations.

[3] = target: T4, GST-RhoGAP-stimulated GTPase activity of GST-RhoA (Homo sapiens, UniProt P61586); test: GAP-stimulated GTPase activity of RhoA; assay type: biochemical; conditions: 50 nM GST-RhoGAP, 2 min 25° C., concentration-dependent
T4 construct: made in house
T4 sequence (P61586 whole entry): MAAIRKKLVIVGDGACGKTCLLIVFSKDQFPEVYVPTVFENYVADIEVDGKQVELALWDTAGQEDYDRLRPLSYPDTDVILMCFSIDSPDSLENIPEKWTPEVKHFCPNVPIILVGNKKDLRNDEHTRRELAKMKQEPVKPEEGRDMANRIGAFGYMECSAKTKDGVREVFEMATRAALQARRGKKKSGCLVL
Procedure: The GAP-stimulated GTPase activity of RhoA was assayed by measuring the decreased radioactivity of [γ-^32p] GTP.GST-RhoA for 2 min at 25° C. in the presence of 50 nM of p122 Rho GAP fused to GST (GST-RhoGAP) and MBP-PKN with various concentrations in 100 μl of reaction mixture (20 mM Tris/HCl at pH 7.5, 10 mM EDTA, 1 mM DTT, 10 mM MgCl2, 1 mM GTP, 0.075% CHAPS, 0.25 mM L-α-dimyristoylphosphatidylcholine, 100 nM [γ-^32p] GTP bound form of GST-RhoA) (Homma, Y. & Emori, Y., EMBO J. 14, 286-291 (1995).

PKN autophosphorylation = test: Kinase activity (autophosphorylation) of immunoprecipitated PKN-PK^−; assay type: biochemical, human; conditions: immunoprecipitate from PK^−/neo#5 cells
Procedure: To examine whether PKN-PK^− has kinase activity, the kinase activity of PKN-PK^−, which has been immunoprecipitated by cells, was assayed. Specifically, the assay was carried out according to the following procedure.
The experiment on immunoprecipitation was carried out at 0 to 4° C. The wild type NIH 3T3 cells and PK^−/neo#5 cells were lysed in 0.5 ml of buffer B (20 mM Tris/HCl at pH 7.5, 1% Nonidet P-40, 137 mM NaCl, 10% glycerol, 1 mM PMSF, 20 μg/ml aprotinin, 10 μg/ml leupeptin, 2.5 mM sodium fluoride, 0.25 mM sodium vanadate) for 1 hr. Insoluble materials were removed by centrifugation at 15,000×g for 10 min, and the supernatants were incubated with 1 μl of 10-fold diluted antiserum αN2 (Example 19) for 2 hr. After addition of 40 μl of 50% protein A Sepharose, the mixtures were further incubated for 1 hr. […] Each immunoprecipitate was incubated for 5 min at 30° C. with a 25-μl mixture (20 mM Tris/HCl at pH 7.5, 4 mM MgCl2, 40 μM ATP, 185 kBq of [γ-^32P] ATP without exogenous substrate. After addition of 5 μl of 6×Laemmli sample buffer (Laemmli, U. K. Nature 227, 680-685 (1970)) and boiling, a 20-μl aliquot of the mixture was subjected to 7% SDS-PAGE. The phosphorylation was visualized and quantitated by an imaging analyzer (Fuji BAS1000).

[4] = system: PK^−/neo#5 cells (NIH 3T3); test: Heat shock induced nuclear translocation of PKN in PK^−/neo#5 cells; assay type: cell-based
Procedure: as §1
At the outset, NIH 3T3 cells which stably overexpresses PKN-PK^− were constructed by the following procedure. A vector phPKNH4-PK^− was constructed by conversion of the lysine at the potential ATP-binding site to an arginine by in vitro site-directed mutagenesis (Mukai, H. & Ono, Y., Biochem. Biophys. Res. Commun. 199, 897-904 (1994)). […]

[5] = target: T5, catalytic subunit of bovine heart PKA (Bos taurus, UniProt P00517); test: Protein kinase assay with PKA (Kemptide substrate), specificity of inhibitor peptide; assay type: biochemical; conditions: Kemptide at Km concentration (16 μM), no arachidonic acid; read-out: IC50 against PKA
T5 construct: The catalytic subunit of bovine heart PKA used in the experiment was purified; from tissue; host or cells: bovine heart
Procedure: In order to judge the specificity of the activity of the inhibitor peptide, a protein kinase assay was carried out using PKA as an enzyme specimen. The catalytic subunit of bovine heart PKA used in the experiment was purified according to a method described in Bechtel, P. J. et al., J. Biol. Chem. 252, 2691-2697 (1977). The protein kinase activity of PKA was measured by using Kemptide (Kemp, B. E. et al., J. Biol. Chem. 252, 4888-4894 (1977) as a substrate under the same conditions as those used in Example 13, except that arachidonic acid was not used. The concentration of Kemptide was the Km concentration (16 μM), and measurement was made using PKN (39-53) peptide as an inhibitor (FIG. 22; white square). The kinase activity was determined in the same manner as in Example 13.

purified PKN = target: T6, purified PKN (Rattus norvegicus, UniProt Q63433); test: Kinetic assays of PKN inhibition by PKN (39-53) peptide; assay type: biochemical
T6 construct: The purified PKN (1 ng) from rat testis cytosol; from tissue; host or cells: rat testis (cytosol / soluble fraction)
T6 sequence (Q63433 whole entry): as the sequence (Q63433 whole entry) above
Procedure: In order to confirm the function of PKN (39-53) as a pseudosubstrate for PKN, kinetic assays were performed with purified PKN, a fixed ATP concentration of 100 μM, and various concentrations of δPKC peptide (10-80 μM). The protein kinase reaction of PKN was performed in the same manner as in Examples 13 and 14. The results, performed in the presence of 40-80 μM PKN (39-53) peptide, are shown in double-reciprocal plots (FIG. 23 (A)). The inhibition was competitive-noncompetitive and gave a linear secondary plot of Km/Vmax (a concentration required to give a half-maximal velocity/maximal velocity) versus inhibitor peptide concentrations (FIG. 23 (B)).

T1 sequence (Q63433 whole entry): as above

CCCCC/C=C\C/C=C\C/C=C\C/C=C\CCCC(=O)O [arachidonic acid]
stimulation of phosphorylation of G-actin by PKN [1]: up to 2 fold | stimulation of phosphorylation of caldesmon by PKN [1]: at least 6 fold | initial velocity of phosphorylation of each NF subunit by PKN, presence versus absence [2]: 5-10 times

O=[As]O [sodium arsenite]
effect on subcellular distribution of PKN (Rat-1 cells): translocation of PKN to the nucleus

EGAENLRRATTDLGRSLGPV [PKN (54-73) peptide]
inhibitory activity against PKN (PKN): little or no inhibitory activity

MBP-PKN: N-terminal region of PKN (amino acid sequence 7-155 in SEQ ID NO: 1) expressed as MBP fusion protein
effect on GST-RhoGAP-stimulated GTPase activity of GST-RhoA [3]: inhibited

PKN-PK^−: single point mutation of human PKN in the kinase domain (K644R), protein kinase-negative mutant
enzyme (kinase) activity of the mutant (PKN autophosphorylation): inactivated | nuclear translocation of the mutant protein on heat shock ([4]; 42° C. or 44° C. for 90 min): does not translocate to the nucleus | effect of overexpression on translocation of endogenous PKN from cytoplasm to nucleus ([4]; heat shock): inhibits the translocation

RERLRREIRKELKLK [PKN (39-53) peptide]
IC50 [5]: ≥ 1 mM | type of inhibition versus δPKC peptide substrate (purified PKN; 100 μM ATP): competitive-noncompetitive | type of inhibition with varying ATP concentration (purified PKN; data not shown): uncompetitive
